This is an account of results in US11267811B2, “Small molecule inhibitors of galectin-3” (BRISTOL-MYERS SQUIBB COMPANY, priority 2017, dated 2022).

As a reminder, the IC50 is the concentration at which inhibition is half-maximal.

The target in the first experiment is His-tagged recombinant human Gal-3 (hGal-3) (Homo sapiens (Human), UniProt P17931). The experiment is described as follows: Gal-3 HTRF assay (His-tagged hGal-3 binding to B-ASF).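 Note: compounds preincubated 30 min with hGal-3, then 1 h with B-ASF, detection via terbium anti-His antibody and streptavidin d2. Control with B-ASF counts as full signal, omitting B-ASF as background.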 To be noted: HTRF, hGal-3 15 nM, B-ASF 15 nM; read-out: hGal-3 IC50. In general terms: TR-FRET usually uses a lanthanide donor and a delayed reading to cut background.
Chain of His-tagged recombinant human Gal-3 (hGal-3) (P17931 whole entry): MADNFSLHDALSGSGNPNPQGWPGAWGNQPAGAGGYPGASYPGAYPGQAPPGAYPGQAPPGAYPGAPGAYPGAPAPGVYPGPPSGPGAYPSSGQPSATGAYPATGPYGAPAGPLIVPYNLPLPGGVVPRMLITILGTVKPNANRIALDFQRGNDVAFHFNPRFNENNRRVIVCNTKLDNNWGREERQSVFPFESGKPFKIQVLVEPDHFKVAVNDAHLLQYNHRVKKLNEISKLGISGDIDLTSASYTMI
For the molecule `OC[C@H]1O[C@@H](c2ncnn2-c2ccncc2)[C@H](O)[C@@H](n2cc(-c3cc(F)c(F)c(F)c3)nn2)[C@H]1O` [Example 42], the half-inhibitory concentration (IC50) was found to be 460 nM.

Turning to `OC[C@H]1O[C@@H](c2nncn2-c2ccc(F)cc2)[C@H](O)[C@@H](n2cc(-c3cc(F)c(F)c(F)c3)nn2)[C@H]1O` [Example 85], the IC50 was found to be 440 nM.

In the case of `Cc1nc([C@@H]2O[C@H](CO)[C@H](O)[C@H](n3cc(-c4cc(F)c(F)c(F)c4)nn3)[C@H]2O)n(-c2nc3ccnn3cc2F)n1` [Example 66], the IC50 came out at 3840 nM.

Take `Cc1nc2cc(F)c(-n3cnnc3[C@@H]3O[C@H](CO)[C@H](O)[C@H](n4cc(-c5cc(F)c(F)c(F)c5)nn4)[C@H]3O)cc2s1` [Example 137]: the 50% inhibitory concentration (IC50) was determined as 80 nM.

Regarding `OC[C@H]1O[C@@H](c2nncn2-c2cc(F)cc(Cl)c2)[C@H](O)[C@@H](n2cc(-c3cc(F)c(F)c(F)c3)nn2)[C@H]1O` [Example 140], the IC50 came to 130 nM.

As to `COCCO[C@@H]1[C@@H](n2cc(-c3cc(F)c(F)c(F)c3)nn2)[C@@H](O)[C@@H](CO)O[C@H]1n1nncc1-c1cccc(Cl)c1` [Example 13], the IC50 came to 571 nM.

As to `Cc1ncc(Cl)cc1-n1cnnc1[C@@H]1O[C@H](CO)[C@H](O)[C@H](n2cc(-c3cc(F)c(F)c(F)c3)nn2)[C@H]1O` [Example 138], the IC50 was 40 nM.

`Cc1nc([C@@H]2O[C@H](CO)[C@H](O)[C@H](n3cc(-c4cc(F)c(F)c(F)c4)nn3)[C@H]2O)n(-c2ccc3ncn(C)c3c2)n1` [Example 59]: the IC50 was found to be 140 nM.

Regarding `CO[C@@H]1[C@@H](n2cc(-c3cc(F)c(F)c(F)c3)nn2)[C@@H](O)[C@@H](CO)O[C@H]1c1nncn1-c1ccc2nc(C)sc2c1` [Example 282, (2R,3R,4S,5R,6S)-2-(hydroxymethyl)-5-methoxy-6-(4-(2-methylbenzo[d]thiazol-6-yl)-4H-1,2,4-triazol-3-yl)-4-(4-(3,4,5-trifluorophenyl)-1H-1,2,3-triazol-1-yl)tetrahydro-2H-pyran-3-ol], the IC50 worked out at 30 nM.

As for `Cc1nc([C@@H]2O[C@H](CO)[C@H](O)[C@H](n3cc(-c4cc(F)c(F)c(F)c4)nn3)[C@H]2O)n(-c2ccc3nc(C)sc3c2)n1` [Example 57, (2R,3R,4R,5R,6S)-2-(hydroxymethyl)-6-(3-methyl-1-(2-methylbenzo[d]thiazol-6-yl)-1H-1,2,4-triazol-5-yl)-4-(4-(3,4,5-trifluorophenyl)-1H-1,2,3-triazol-1-yl)tetrahydro-2H-pyran-3,5-diol], the IC50 was 50 nM.

With `Cc1nc([C@@H]2O[C@H](CO)[C@H](O)[C@H](n3cc(-c4cc(F)c(F)c(F)c4)nn3)[C@H]2O)n(-c2cc(Cl)c(Cl)cc2C)n1` [Example 69], the 50% inhibitory concentration (IC50) was 60 nM.

Regarding `OC[C@H]1O[C@@H](c2nn[nH]c2-c2cccc(Cl)c2)[C@H](O)[C@@H](n2cc(-c3cc(F)c(F)c(F)c3)nn2)[C@H]1O` [Example 290, (2S,3R,4R,5R,6R)-2-(5-(3-chlorophenyl)-1H-1,2,3-triazol-4-yl)-6-(hydroxymethyl)-4-(4-(3,4,5-trifluorophenyl)-1H-1,2,3-triazol-1-yl)tetrahydro-2H-pyran-3,5-diol], the IC50 was 3000 nM.

Regarding `Cc1nc2cc(Cl)c(-n3ncnc3[C@@H]3O[C@H](CO)[C@H](O)[C@H](n4cc(-c5cc(F)c(F)c(F)c5)nn4)[C@H]3O)cc2s1` [Example 51], the IC50 is 70 nM.

As for `COc1ccc(Cl)cc1-n1cnnc1[C@@H]1O[C@H](CO)[C@H](O)[C@H](n2cc(-c3cc(F)c(F)c(F)c3)nn2)[C@H]1O` [Example 74], the IC50 was 110 nM.

In the case of `OC[C@H]1O[C@@H](c2nncn2-c2ccc3nccnc3c2)[C@H](O)[C@@H](n2cc(-c3cc(F)c(F)c(F)c3)nn2)[C@H]1O` [Example 124], the IC50 was determined as 400 nM.

Regarding `Cc1nc2ccc(-n3ncnc3[C@@H]3O[C@H](CO)[C@H](O)[C@H](n4cc(-c5ccc(F)cc5)nn4)[C@H]3O)cc2s1` [Example 224, (2R,3R,4R,5R,6S)-4-(4-(4-fluorophenyl)-1H-1,2,3-triazol-1-yl)-2-(hydroxymethyl)-6-(1-(2-methylbenzo[d]thiazol-6-yl)-1H-1,2,4-triazol-5-yl)tetrahydro-2H-pyran-3,5-diol], the half-maximal inhibitory concentration (IC50) was found to be 330 nM.

With `Cc1nc([C@@H]2O[C@H](CO)[C@H](O)[C@H](n3cc(-c4cc(F)c(Cl)c(F)c4)nn3)[C@H]2O)n(-c2cc(Cl)ccc2C)n1` [Example 261], the IC50 turned out to be 20 nM.

For `OC[C@H]1O[C@@H](c2nncn2-c2ccc(-n3ccnc3)cc2)[C@H](O)[C@@H](n2cc(-c3cc(F)c(F)c(F)c3)nn2)[C@H]1O` [Example 117], the concentration for half-maximal inhibition (IC50) was found to be 1460 nM.

As to `Cc1nc2ccc(-n3cnnc3[C@@H]3O[C@H](CO)[C@H](O)[C@H](n4cc(-c5cc(F)c(F)c(F)c5)nn4)[C@H]3O)cc2s1` [Example 132], the IC50 amounted to 20 nM.

In the case of `Cc1nc2ccc(-n3ncnc3[C@@H]3O[C@H](CO)[C@H](O)[C@H](n4cc(-c5cc(F)c(N6CCOCC6)c(F)c5)nn4)[C@H]3O)cc2s1` [Example 243], the IC50 came out at 80 nM.

Turning to `OC[C@H]1O[C@@H](c2ncnn2-c2cc(Cl)ccc2F)C[C@@H](n2cc(-c3cc(F)c(F)c(F)c3)nn2)[C@H]1O` [Example 179], the IC50 worked out at 250 nM.

For `OC[C@H]1O[C@@H](c2nncn2-c2cc(Cl)cc(Cl)c2)[C@H](O)[C@@H](n2cc(-c3cc(F)c(F)c(F)c3)nn2)[C@H]1O` [Example 101], the IC50 was 80 nM.

As to `Cc1nc([C@@H]2O[C@H](CO)[C@H](O)[C@H](n3cc(-c4cc(F)c(F)c(F)c4)nn3)[C@H]2O)n(-c2cc(Cl)cc(C(F)(F)F)c2)n1` [Example 67], the concentration for half-maximal inhibition (IC50) stood at 130 nM.

The experiment is the same for the next values; noted with them: read-out: hGal3 IC50.
`Cc1nc2ccc(-n3ncnc3[C@@H]3O[C@H](CO)[C@H](O)[C@H](n4cc(-c5ccc(NS(C)(=O)=O)c(F)c5)nn4)[C@H]3O)cc2s1` [Example 203]: the IC50 is 2120 nM.

For the molecule `Cc1nc2ccc(-n3cnnc3[C@@H]3O[C@H](CO)[C@H](O)[C@H](n4cc(-c5cc(F)c(Cl)c(F)c5)nn4)[C@H]3O)cc2s1` [Example 302], the IC50 amounted to 28 nM.

With `Cc1nnc([C@@H]2O[C@H](CO)[C@H](O)[C@H](n3cc(-c4cc(F)c(Cl)c(F)c4)nn3)[C@H]2O)n1-c1cc(Cl)ccc1C(F)(F)F` [Example 311], the IC50 was 12 nM.

For the molecule `Cc1nc2ccc(-n3ncnc3[C@@H]3O[C@H](CO)[C@H](O)[C@H](n4cc(-c5cc(F)c(C#N)cc5C)nn4)[C@H]3O)cc2s1` [Example 235], the IC50 is 390 nM.

With `Cc1nc([C@@H]2O[C@H](CO)[C@H](O)[C@H](n3cc(-c4ccc(Cl)c(F)c4)nn3)[C@H]2O)n(-c2cc(Cl)ccc2F)n1` [Example 249], the IC50 came to 90 nM.

In the case of `Cc1nc2ccc(-n3ncnc3[C@@H]3O[C@H](CO)[C@H](O)[C@H](n4cc(-c5cc(C)c(C#N)c(F)c5)nn4)[C@H]3O)cc2s1` [Example 236], the IC50 was determined as 240 nM.

As to `Cc1nc2ccc(-n3ncnc3[C@@H]3O[C@H](CO)[C@H](O)[C@H](n4cc(-c5cccc(F)c5)nn4)[C@H]3O)cc2s1` [Example 213], the IC50 is 120 nM.

With `CNc1ccc(-c2cn([C@H]3[C@@H](O)[C@@H](CO)O[C@@H](c4ncnn4-c4ccc5nc(C)sc5c4)[C@@H]3O)nn2)cc1F` [Example 207], the IC50 is 740 nM.

Take `Cc1nc([C@@H]2O[C@H](CO)[C@H](O)[C@H](n3cc(-c4ccc(Cl)c(F)c4)nn3)[C@H]2O)n(-c2ccc3ncsc3c2)n1` [Example 256]: the IC50 came out at 80 nM.

For the molecule `Cc1nc2ccc(-n3ncnc3[C@@H]3O[C@H](CO)[C@H](O)[C@H](n4cc(-c5cc(N)c(F)c(F)c5)nn4)[C@H]3O)cc2s1` [Example 218], the IC50 was determined as 20 nM.

In the case of `Cc1nc2ccc(-n3ncnc3[C@@H]3O[C@H](CO)[C@H](O)[C@H](n4cc(-c5ccc(Cl)c(Cl)c5)nn4)[C@H]3O)cc2s1` [Example 211], the IC50 came to 60 nM.

Turning to `Cc1nc2ccc(-n3c([C@@H]4O[C@H](CO)[C@H](O)[C@H](n5cc(-c6ccc(Br)c(F)c6)nn5)[C@H]4O)nnc3C(F)(F)F)cc2s1` [Example 315], the half-maximal inhibitory concentration (IC50) worked out at 980 nM.

Staying with this experiment, now noted: read-out: hGal IC50.
`Cc1nc([C@@H]2O[C@H](CO)[C@H](O)[C@H](n3cc(-c4cc(F)c(F)c(F)c4)nn3)[C@H]2O)n(-c2ccc3nc(C(F)(F)F)sc3c2)n1` [Example A8]: the IC50 came out at 505 nM.

Turning to `Cc1nc([C@@H]2O[C@H](CO)[C@H](O)[C@H](n3cc(-c4cc(F)c(Cl)c(F)c4)nn3)[C@H]2O)n(-c2cc(Cl)c(Cl)cc2Cl)n1` [Example A53], the IC50 is 58 nM.

On to `Cc1nc([C@@H]2O[C@H](CO)[C@H](O)[C@H](n3cc(-c4cc(F)c(Cl)c(F)c4)nn3)[C@H]2O)n(-c2cc(Cl)cc3cccnc23)n1` [Example A11], for which the IC50 was 17 nM.

With `CO[C@@H]1[C@@H](n2cc(-c3ccc(Br)c(F)c3)nn2)[C@@H](O)[C@@H](CO)O[C@H]1c1nc(C)nn1-c1ccc2ncsc2c1` [Example A75], the IC50 came to 340 nM.

Consider `Cc1nc([C@@H]2O[C@H](CO)[C@H](O)[C@H](n3cc(-c4cc(F)c(Cl)c(F)c4)nn3)[C@H]2O)n(-c2cc(Cl)ccc2Br)n1` [Example A13], for which the IC50 stood at 22 nM.

Take `COc1ccc(C(F)(F)F)c(-n2nc(C)nc2[C@@H]2O[C@H](CO)[C@H](O)[C@H](n3cc(-c4cc(F)c(Cl)c(F)c4)nn3)[C@H]2O)c1` [Example A64]: the concentration for half-maximal inhibition (IC50) stood at 42 nM.

As for `Cc1nc([C@@H]2O[C@H](CO)[C@H](O)[C@H](n3cc(-c4ccc(Cl)c(F)c4F)nn3)[C@H]2O)n(-c2cc(Cl)ccc2Br)n1` [Example A73], the half-inhibitory concentration (IC50) turned out to be 10 nM.

With `Cc1nc([C@@H]2O[C@H](CO)[C@H](O)[C@H](n3cc(-c4ccc(Cl)c(F)c4)nn3)[C@H]2O)n(-c2cc(Cl)cc(F)c2Cl)n1` [Example A48], the IC50 came out at 47 nM.

On to `Cc1nc([C@@H]2O[C@H](CO)[C@H](O)[C@H](n3cc(-c4cc(F)c(Cl)c(Cl)c4)nn3)[C@H]2O)n(-c2cc(Cl)ccc2Cl)n1` [Example A54], for which the IC50 was determined as 48 nM.

In the case of `Cc1nc([C@@H]2O[C@H](CO)[C@H](O)[C@H](n3cc(-c4ccc5scnc5c4)nn3)[C@H]2O)n(-c2cc(Cl)ccc2C(F)(F)F)n1` [Example A65], the IC50 was 87 nM.

On to `Cc1nc([C@@H]2O[C@H](CO)[C@H](O)[C@H](n3cc(-c4ncc(Cl)cc4F)nn3)[C@H]2O)n(-c2cc(Cl)ccc2C(F)(F)F)n1` [Example A59], for which the IC50 is 158 nM.
